Laboratory results: US12240862B2, “Inhibitors of peptidylarginine deiminases” (Gilead Sciences, Inc., priority 2020, dated 2025)

target: T1, human PAD4 (Homo sapiens, UniProt Q9UM07); experiment: In vitro PAD4 BAEE biochemical assay; details: human PAD4, BAEE substrate; 5 nM PAD4, 2 mM calcium chloride, 3 mM BAEE; geometric mean of multiple experiments
T1 construct: human PAD4 (NM_012387), A2P663, was PCR amplified; His-SUMO (N, cleaved yes); made in house; host or cells: E. coli BL21(DE3)
Outline: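 Tag-free recombinant hPAD4 (5 nM), 2 mM CaCl2, 3 mM BAEE, 50 mM MOPS pH 7.6, 2 mM DTT; 30 min compound preincubation, 2 h reaction, all 25 °C. EDTA quench; ammonia read via o-phthalaldehyde amine coupling, 1 h.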

T1 sequence (Q9UM07 2-663): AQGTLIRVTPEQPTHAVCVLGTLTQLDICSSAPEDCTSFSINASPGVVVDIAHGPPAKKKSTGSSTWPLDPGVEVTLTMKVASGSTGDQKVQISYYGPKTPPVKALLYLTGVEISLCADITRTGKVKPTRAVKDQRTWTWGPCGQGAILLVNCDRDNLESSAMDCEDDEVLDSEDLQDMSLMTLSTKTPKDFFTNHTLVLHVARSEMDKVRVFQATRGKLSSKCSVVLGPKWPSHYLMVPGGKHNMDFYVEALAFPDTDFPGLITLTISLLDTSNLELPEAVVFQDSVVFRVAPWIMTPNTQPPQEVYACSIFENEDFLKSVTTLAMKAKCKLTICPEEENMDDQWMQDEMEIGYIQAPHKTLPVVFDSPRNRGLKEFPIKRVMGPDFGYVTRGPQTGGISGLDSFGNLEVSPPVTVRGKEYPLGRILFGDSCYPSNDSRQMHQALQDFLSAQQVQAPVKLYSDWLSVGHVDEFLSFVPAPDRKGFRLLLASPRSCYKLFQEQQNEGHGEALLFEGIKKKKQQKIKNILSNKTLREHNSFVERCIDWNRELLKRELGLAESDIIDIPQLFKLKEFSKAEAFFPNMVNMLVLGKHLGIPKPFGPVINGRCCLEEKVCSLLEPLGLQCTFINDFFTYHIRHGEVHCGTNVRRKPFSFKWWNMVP

Row | Compound | IC50 [nM]
1 | COc1cc(C(=O)N2[C@H]3CC[C@@H]2[C@H](N)C3)cc2nc(-c3cc4ccc(C5CCCCN5C(=O)N5CCCC5)nc4n3CC3CC3)c(C)n12 (some centres unmarked) [Example 544, [(1~{R},2~{R},4~{S})-2-amino-7-azabicyclo [2.2.1]heptan-7-yl]-[2-[1-(cyclopropylmethyl)-6-[1-(pyrrolidine-1-carbonyl)piperidin-2-yl]pyrrolo [2,3-b]pyridin-2-yl]-5-methoxy-3-methylimidazo [1,2-a]pyridin-7-yl] methanone] | 361
2 | CCc1ccc2cc(-c3nc4cc(C(=O)N5[C@H]6CC[C@@H]5[C@H](N)C6)cc(OC)n4c3C)n(CC3CC3)c2n1 [Example 584, [(1~{R},2~{R},4~{S})-2-amino-7-azabicyclo [2.2.1]heptan-7-yl]-[2-[1-(cyclopropylmethyl)-6-ethylpyrrolo[2,3-b]pyridin-2-yl]-5-methoxy-3-methylimidazo[1,2-a]pyridin-7-yl]methanone] | 84.5
3 | COc1cc(C(=O)N2[C@H]3CC[C@@H]2[C@H](N)C3)cc2nc(-c3cc4ccc([C@@H](C)NC(=O)C(C)(C)C(=O)O)nc4n3CC3CC3)c(C)n12 [Example 155, 3-[[(1~{R})-1-[2-[7-[(1~{R},2~{R},4~{S})-2-amino-7-azabicyclo[2.2.1]heptane-7-carbonyl]-5-methoxy-3-methylimidazo [1,2-a]pyridin-2-yl]-1-(cyclopropylmethyl)pyrrolo [2,3-b]pyridin-6-yl]ethyl]amino]-2,2-dimethyl-3-oxopropanoic acid] | 45.5
4 | CCc1ccc2cc(-c3nc4cc(C(=O)N5[C@H]6CC[C@@H]5[C@H](N)C6)cc(OC)n4c3C)n(CC(C)(F)F)c2n1 [Example 500, [(1~{R},2~{R},4~{S})-2-amino-7-azabicyclo [2.2.1]heptan-7-yl]-[2-[1-(2,2-difluoropropyl)-6-ethylpyrrolo[2,3-b]pyridin-2-yl]-5-methoxy-3-methylimidazo [1,2-a]pyridin-7-yl] methanone] | 160
5 | COc1cc(C(=O)N2C[C@H]3CCCN[C@H]3C2)cc2nc(-c3cc4ccc(N(C(F)F)S(C)(=O)=O)nc4n3CC3CC3)c(C)n12 [Example 336, ~{N}-[2-[7-[(4~{a}~{R},7~{a}~{R})-1,2,3,4,4~{a},5,7,7~{a}-octahydropyrrolo[3,4-b]pyridine-6-carbonyl]-5-methoxy-3-methylimidazo[1,2-a]pyridin-2-yl]-1-(cyclopropylmethyl)pyrrolo [2,3-b]pyridin-6-yl]-~{N}-(difluoromethyl) methanesulfonamide] | 484
6 | COc1cc(C(=O)N2C[C@@H]3CNCC[C@@H]32)cc2nc(-c3cc4ccc(N(C(F)F)S(C)(=O)=O)nc4n3CC3CC3)c(C)n12 [Example 283, ~{N}-[1-(cyclopropylmethyl)-2-[7-[(1~{S},6~{S})-3,7-diazabicyclo[4.2.0]octane-7-carbonyl]-5-methoxy-3-methylimidazo[1,2-a]pyridin-2-yl]pyrrolo[2,3-b]pyridin-6-yl]-~{N}-(difluoromethyl) methanesulfonamide] | 11700
7 | CCc1ccc2cc(-c3nc4cc(C(=O)N5CC6(CNCCO6)C5)cc(OC)n4c3C)n(CC3CC3)c2n1 [Example 595, [2-[1-(cyclopropylmethyl)-6-ethylpyrrolo[2,3-b]pyridin-2-yl]-5-methoxy-3-methylimidazo[1,2-a]pyridin-7-yl]-(5-oxa-2,8-diazaspiro[3.5]nonan-2-yl) methanone] | 31500
8 | COc1cc(C(=O)N[C@H]2CCCCNC2)cc2nc(-c3cc4ccc(N(C(F)F)S(C)(=O)=O)nc4n3CC3CC3)c(C)n12 [Example 296, ~{N}-[(3~{S})-azepan-3-yl]-2-[1-(cyclopropylmethyl)-6-[difluoromethyl (methylsulfonyl)amino]pyrrolo[2,3-b]pyridin-2-yl]-5-methoxy-3-methylimidazo[1,2-a]pyridine-7-carboxamide] | 24600
